Results: PubChem BioAssay AID248 (DTP/NCI, 2004)
“And” between values parts separate entries of the source, which are not always exact repeats. Equal entries are not always repeated. Toxic doses and inconclusive results are not listed.

Tested on: L1210 leukemia ip in BDF1 mice, survival T/C
Assay: NCI In Vivo Anticancer Drug Screen. Data for tumor model L1210 Leukemia (intraperitoneal) in B6D2F1 (BDF1) mice
Details: endpoint: mean survival time, higher = longer survival
Method in brief: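 Antitumor effect is assessed in tumor-bearing animals. Survival in the compound arm is compared with a vehicle-dosed control arm and expressed as their quotient.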

[1] = dose: 100.0 mg/kg/injection, schedule: Q01DX009 (ip), vehicle: Klucel (hydroxypropylcellulose) (HPC)
[2] = dose: 200.0 mg/kg/injection, schedule: Q01DX009 (ip), vehicle: Klucel (hydroxypropylcellulose) (HPC)
[3] = dose: 400.0 mg/kg/injection, schedule: Q01DX009 (ip), vehicle: Klucel (hydroxypropylcellulose) (HPC)
[4] = dose: 50.0 mg/kg/injection, schedule: Q01DX001 (ip), vehicle: carboxymethylcellulose (CMC)
[5] = dose: 100.0 mg/kg/injection, schedule: Q01DX001 (ip), vehicle: carboxymethylcellulose (CMC)
[6] = dose: 200.0 mg/kg/injection, schedule: Q01DX001 (ip), vehicle: carboxymethylcellulose (CMC)
[7] = dose: 400.0 mg/kg/injection, schedule: Q01DX001 (ip), vehicle: carboxymethylcellulose (CMC)
[8] = dose: 100.0 mg/kg/injection, schedule: Q01DX009 (ip), vehicle: saline with Tween-80
[9] = dose: 100.0 mg/kg/injection, schedule: Q01DX001 (ip), vehicle: saline

For O=S1(=O)CCC(N(N=C2CCCCC2)c2ccccc2)C1 (configuration not stated), the T/C (dose: 50.0 mg/kg/injection, schedule: Q01DX009 (ip), vehicle: Klucel (hydroxypropylcellulose) (HPC)) was 95 % of control, the T/C [1] was 98 % of control and the T/C [2] was 106 % of control. For the same compound, the T/C [3] was 95 % of control.

In the case of CN(CCO)CC1C(c2ccccc2)C1c1ccccc1 (configuration not stated), the T/C (dose: 12.5 mg/kg/injection, schedule: Q04DX002 (ip), vehicle: Klucel (hydroxypropylcellulose) (HPC)) is reported as 97 % of control, the T/C (dose: 25.0 mg/kg/injection, schedule: Q04DX002 (ip), vehicle: Klucel (hydroxypropylcellulose) (HPC)) is reported as 94 % of control and the T/C (dose: 50.0 mg/kg/injection, schedule: Q04DX002 (ip), vehicle: Klucel (hydroxypropylcellulose) (HPC)) is reported as 90 % of control.

In the case of CCOP(=O)(Nc1ccc2c(c1)Cc1cc(Cl)ccc1-2)OCC, the T/C [4] is reported as 97 % of control, the T/C [5] is reported as 105 % of control and the T/C [6] is reported as 97 % of control. For the same compound, the T/C [7] was 92 % of control.

With Cc1ccc2cccc(CC(=O)O)c2c1 the T/C (dose: 100.0 mg/kg/injection, schedule: Q01DX005 (ip), vehicle: saline with Tween-80) was 104 % of control, the T/C [8] was 96 % of control and the T/C (dose: 200.0 mg/kg/injection, schedule: Q01DX005 (ip), vehicle: saline with Tween-80) was 112 % of control. The T/C (dose: 200.0 mg/kg/injection, schedule: Q01DX009 (ip), vehicle: saline with Tween-80) was 96 % of control, the T/C (dose: 400.0 mg/kg/injection, schedule: Q01DX005 (ip), vehicle: saline with Tween-80) was 108 % of control and the T/C (dose: 400.0 mg/kg/injection, schedule: Q01DX009 (ip), vehicle: saline with Tween-80) was 115 % of control.

In the case of C/C=C/c1nc2c(c(=O)n(C)c(=O)n2C)n1C, the T/C [4] is reported as 106 % of control, the T/C [5] is reported as 95 % of control and the T/C [6] is reported as 103 % of control. The T/C [7] was 97 % of control.

In the case of CCCCC/C=N\NC(N)=S, the T/C [5] is reported as 96 % of control.

N/C(=N/N=C/c1cc(Cl)ccc1O)N/N=C\c1cc(Cl)ccc1O was tested, and the T/C (dose: 15.0 mg/kg/injection, schedule: Q01DX Z (ip), vehicle: methylcellulose (MC)) was 107 % of control, the T/C (dose: 30.0 mg/kg/injection, schedule: Q01DX Z (ip), vehicle: methylcellulose (MC)) was 104 % of control and the T/C (dose: 60.0 mg/kg/injection, schedule: Q01DX Z (ip), vehicle: methylcellulose (MC)) was 119 % of control. The T/C (dose: 60.0 mg/kg/injection, schedule: Q01DX Z (oral), vehicle: methylcellulose (MC)) was 94 % of control, the T/C (dose: 120.0 mg/kg/injection, schedule: Q01DX Z (ip), vehicle: methylcellulose (MC)) was 108 % of control and the T/C (dose: 120.0 mg/kg/injection, schedule: Q01DX Z (oral), vehicle: methylcellulose (MC)) was 93 % of control. The T/C (dose: 240.0 mg/kg/injection, schedule: Q01DX Z (oral), vehicle: methylcellulose (MC)) was 100 % of control.

For NC(CSCc1ccccc1)(CSCc1ccccc1)C(=O)O, the T/C (dose: 25.0 mg/kg/injection, schedule: Q01DX009 (ip), vehicle: other) was 107 % of control, the T/C (dose: 50.0 mg/kg/injection, schedule: Q01DX009 (ip), vehicle: other) was 105 % of control and the T/C (dose: 100.0 mg/kg/injection, schedule: Q01DX009 (ip), vehicle: other) was 100 % of control. The T/C (dose: 200.0 mg/kg/injection, schedule: Q01DX009 (ip), vehicle: other) was 91 % of control and the T/C (dose: 400.0 mg/kg/injection, schedule: Q01DX009 (ip), vehicle: other) was 113 % of control.

With CCOCN(C)C the T/C (dose: 25.0 mg/kg/injection, schedule: Q01DX001 (ip), vehicle: saline) was 103 % of control, the T/C (dose: 25.0 mg/kg/injection, schedule: Q01DX009 (ip), vehicle: saline) was 103 % of control and the T/C (dose: 25.0 mg/kg/injection, schedule: Q04DX003 (ip), vehicle: saline) was 100 % of control. For the same compound, the T/C (dose: 44.0 mg/kg/injection, schedule: Q01DX009 (ip), vehicle: saline) was 110 % of control, the T/C (dose: 50.0 mg/kg/injection, schedule: Q01DX001 (ip), vehicle: saline) was 94 % of control and the T/C (dose: 50.0 mg/kg/injection, schedule: Q01DX009 (ip), vehicle: saline) was 105 % of control. For the same compound, the T/C (dose: 50.0 mg/kg/injection, schedule: Q04DX003 (ip), vehicle: saline) was 100 % of control, the T/C (dose: 66.0 mg/kg/injection, schedule: Q01DX009 (ip), vehicle: saline) was 103 % of control and the T/C [9] was 97 % of control and 107 % of control. The T/C (dose: 100.0 mg/kg/injection, schedule: Q01DX009 (ip), vehicle: saline) was 97 % of control and the T/C (dose: 100.0 mg/kg/injection, schedule: Q04DX003 (ip), vehicle: saline) was 105 % of control.

For O=C(N/N=C/c1ccc(O)cc1)c1ccccc1NC(=O)C1CC1, the T/C [1] was 104 % of control, the T/C [2] was 89 % of control and the T/C [3] was 93 % of control.

With Cc1[nH]c(N)nc(=S)c1CCCN(C(=O)c1ccccc1)c1ccccc1 the T/C (dose: 37.5 mg/kg/injection, schedule: Q01DX001 (ip), vehicle: Klucel (hydroxypropylcellulose) (HPC)) was 90 % of control and the T/C (dose: 150.0 mg/kg/injection, schedule: Q01DX001 (ip), vehicle: Klucel (hydroxypropylcellulose) (HPC)) was 90 % of control.

CN(C)c1ccc(C(C#N)=C(C#N)C#N)cc1 was tested, and the T/C (dose: 100.0 mg/kg/injection, schedule: Q01DX001 (ip), vehicle: acetone) was 96 % of control, the T/C (dose: 100.0 mg/kg/injection, schedule: Q01DX009 (ip), vehicle: acetone) was 97 % of control and the T/C (dose: 200.0 mg/kg/injection, schedule: Q01DX001 (ip), vehicle: acetone) was 99 % of control. For the same compound, the T/C (dose: 200.0 mg/kg/injection, schedule: Q01DX009 (ip), vehicle: acetone) was 97 % of control and the T/C (dose: 400.0 mg/kg/injection, schedule: Q01DX001 (ip), vehicle: acetone) was 94 % of control.

With CN(C)CC(C(=O)c1ccc(Br)cc1)C(Br)c1ccccc1 (configuration not stated) the T/C (dose: 0.78 mg/kg/injection, schedule: Q01DX009 (ip), vehicle: saline) was 94 % of control, the T/C (dose: 1.56 mg/kg/injection, schedule: Q01DX009 (ip), vehicle: saline) was 92 % of control and the T/C (dose: 3.12 mg/kg/injection, schedule: Q01DX009 (ip), vehicle: saline) was 97 % of control. The T/C (dose: 12.5 mg/kg/injection, schedule: Q04DX003 (ip), vehicle: saline with Tween-80) was 95 % of control and the T/C (dose: 25.0 mg/kg/injection, schedule: Q04DX003 (ip), vehicle: saline with Tween-80) was 91 % of control.

For COc1cc2nc3occc3c(OC)c2c2c1OC(C(C)(C)O)C2 (configuration not stated), the T/C [4] was 98 % of control, the T/C [5] was 117 % of control and the T/C [6] was 93 % of control.

With O=C1NC(c2cccs2)N2C(=O)NC(c3cccs3)N12 (configuration not stated) the T/C (dose: 100.0 mg/kg/injection, schedule: Q04DX002 (ip), vehicle: gum acacia) was 105 % of control, the T/C (dose: 200.0 mg/kg/injection, schedule: Q04DX002 (ip), vehicle: gum acacia) was 109 % of control and the T/C (dose: 400.0 mg/kg/injection, schedule: Q04DX002 (ip), vehicle: gum acacia) was 112 % of control.

For CCN(CC)CC#CCN(CC)CC, the T/C (dose: 50.0 mg/kg/injection, schedule: Q01DX009 (ip), vehicle: saline with Tween-80) was 92 % of control, the T/C [8] was 97 % of control and the T/C (dose: 100.0 mg/kg/injection, schedule: Q04DX003 (ip), vehicle: saline with Tween-80) was 102 % of control. The T/C (dose: 200.0 mg/kg/injection, schedule: Q04DX003 (ip), vehicle: saline with Tween-80) was 90 % of control.

With CC(Cl)CN1c2ccccc2Sc2ccc(Cl)cc21 (configuration not stated) the T/C [5] was 97 % of control, the T/C [6] was 95 % of control and the T/C [7] was 92 % of control.

In the case of CC(C)N=C(N)c1ccc(NC(=O)c2ccc(C(=O)Nc3ccc(C(N)=NC(C)C)cc3)cc2)cc1, the T/C (dose: 0.12 mg/kg/injection, schedule: Q01DX Z (ip), vehicle: water) is reported as 101 % of control, the T/C (dose: 0.25 mg/kg/injection, schedule: Q01DX Z (ip), vehicle: water) is reported as 108 % of control and the T/C (dose: 0.5 mg/kg/injection, schedule: Q01DX Z (ip), vehicle: water) is reported as 113 % of control. The T/C (dose: 1.0 mg/kg/injection, schedule: Q01DX Z (ip), vehicle: water) was 162 % of control, the T/C (dose: 1.25 mg/kg/injection, schedule: Q01DX Z (ip), vehicle: other) was 237 % of control and the T/C (dose: 2.5 mg/kg/injection, schedule: Q01DX Z (ip), vehicle: other) was 172 % of control. The T/C (dose: 5.0 mg/kg/injection, schedule: Q01DX Z (ip), vehicle: other) was 118 % of control, the T/C (dose: 62.0 mg/kg/injection, schedule: Q01DX Z (oral), vehicle: alkali diluted with CMC) was 104 % of control and the T/C (dose: 125.0 mg/kg/injection, schedule: Q01DX Z (oral), vehicle: alkali diluted with CMC) was 93 % of control. For the same compound, the T/C (dose: 250.0 mg/kg/injection, schedule: Q01DX Z (oral), vehicle: alkali diluted with CMC) was 96 % of control and the T/C (dose: 500.0 mg/kg/injection, schedule: Q01DX Z (oral), vehicle: alkali diluted with CMC) was 90 % of control.

CC1(C)c2ccc([nH]2)C(C)(C)c2ccc([nH]2)C(C)(C)c2c[nH]cc2C(C)(C)c2ccc1[nH]2 was tested, and the T/C [9] was 102 % of control, the T/C (dose: 200.0 mg/kg/injection, schedule: Q01DX001 (ip), vehicle: saline) was 94 % of control and the T/C (dose: 400.0 mg/kg/injection, schedule: Q01DX001 (ip), vehicle: saline) was 97 % of control.
